According to patent US20260174677A1, “METHODS OF TREATING INSULIN RESISTANCE AND ASSOCIATED DISORDERS” (The University of Melboune, priority 2022, published 2026):
Entries after “also recorded” stand apart in the source; their conditions may differ.

Tests used:
[1] = Intranasal PZ6005 in diet-induced obese mice: food intake and energy expenditure; type: in vivo, mouse; settings: I.N. 1 or 5 mg/animal/day, Day 8-Day 11 of treatment, diet-induced obesity
Experimental: Mice were acclimated for 24 h and then monitored for 48 h in an environmentally controlled Promethion Metabolic Screening System (Sable Systems International, NV) fitted with indirect open circuit calorimetry, food consumption and activity monitors to measure activity, caloric intake and energy expenditure. Respiratory quotients were calculated as the ratio of CO2 production over O2 consumption respiratory exchange ratio and energy expenditure was calculated using the Weir equation (Kcal h-1=60×(0.003941×VO2+0.001106×VCO2). To account for difference in body mass/composition energy expenditure was analysed and adjusted using ANCOVA using scripts available at the National Mouse Metabolic Phenotyping Centers (MMPC, Nashville, TN, USA) Energy Expenditure Analysis Page (https://www.mmpc.org/shared/regression.aspx).
Conscious mice were restrained by scruffing and inverted parallel to the floor with the chin at ˜180-degree angle with the neck. Using a 10 μL tip, a pipettor was loaded with 5 μl of vehicle (ddH2O) or fluorosamine (1 mg/animal in 20 μl or 5 mg/animal in 20 μl). The tip of the filled pipettor was placed near the left nostril at a 45-degree angle, and the drug was ejected to form a small 5 μl droplet at tip for the mouse to inhale. […]

CSPG-ECM = test: I.C.V. fluorosamine in obese mice: WFA immunostaining of CSPG-ECM in brain areas; type: in vivo, mouse
Experimental: For detection of aggrecan, GFP, HABP, parvalbumin, mCherry, versican, tenascin-C, HAPLN1, neurocan, phosphacan, brevican, WFA and WFA-FITC sections were incubated at room temperature for 1 h in blocking buffer (0.3% Triton X-100, 5% normal goat serum, Gibco, ThermoFisher, MA, 0.02% sodium azide) and then overnight at 4° C. in 1% blocking buffer containing either rabbit anti-aggrecan (1:1000, AB1031, Millipore, MA), chicken anti-GFP (1:2000; ab13970, Abcam, Cambridge, UK), Biotinylated HABP (1:100, 385911, Burlington, MA), sheep anti-parvalbumin (1:1000), in house), rabbit anti-dsRed (1:2000, 600-401-379, Rockland, PA), rabbit anti-versican (1:1000, AB1033, Millipore, MA), tenascin-C (1:500, M1-B4, Developmental Studies Hybridoma Bank, Iowa), HAPLN1 (1:500, 9/30/8-A-4, Developmental Studies Hybridoma Bank, Iowa), neurocan (1:300, 1F6-S, Developmental Studies Hybridoma Bank, Iowa), phophacan (1:300, 3F8, Developmental Studies Hybridoma Bank, Iowa), brevican (1:500, 610895, BD Transduction Laboratories), biotinylated WFA (1:2000, L1516; Sigma-Aldrich, MO), WFA-FITC (1:2000, FL-1351-2, Vector Laboratories, CA), rabbit anti PGP9.5 (1:1000, 14730-1-AP, Proteintech, IL), guinea pig anti AgRP (1:500, AS506, Antibodies Australia, Melbourne, AUS). […]
All image quantification was performed in Image J (NIH) software (NIH, MA). […] To quantify area and intensity of the CSPG-ECM within each brain region (ARC, VMH or RSG cortex) images were thresholded and binarized to create a region of interest (ROI) mask of only the CSPG-ECM. For each brain area, CSPG-ECM ROI area (μm^2) and intensity (sum of all pixel intensities within the ROI) was calculated. […]

CC(=O)NC1C(OC(C)=O)OC(COC(C)=O)[C@@H](F)C1OC(C)=O (some centres unmarked) [fluorosamine, per-O-acetylated-4-F-N-acetylglucosamine]
energy expenditure [1]: increases energy expenditure
food intake [1]: decreases food intake
CSPG-ECM in other brain areas such as the RSG cortex (CSPG-ECM; I.C.V. daily for 10 days): did not reduce CSPG-ECM
neurofibrosis (CSPG-ECM, WFA immunostaining) within the ARC (CSPG-ECM; I.C.V. daily for 10 days): significantly attenuated neurofibrosis within the ARC; also recorded: preferentially attenuates CSPG-ECM in the ARC
CSPG-ECM expression in the habenula (CSPG-ECM; I.C.V., highest dose): only partially attenuated expression
